pIC50: −log10 of the molar value.

As usually defined, the pIC50 is the negative decadic logarithm of the IC50, by convention in mol/L. A word on the melting point: it is the temperature of the solid-liquid transition.

Data set [1] has as its system C57BL/6 mice, DSS model of IBD. Nature of the data set: Acute DSS-colitis model. The data set is classed as in vivo, mouse. The conditions noted are these: 2% DSS, 50 mg/kg oral daily. The procedure: We have conducted experiments with SK inhibitors using the dextran sulfate sodium (DSS) model of IBD. In these experiments, male C57BL/6 mice were provided with standard rodent diet and water ad libitum. After their acclimation, the animals were randomly divided into groups of 5 or 6 for DSS (40,000 MW from ICN Biomedicals, Inc., Aurora, Ohio)—and drug-treatment. The SK inhibitors were dissolved in PEG400, and given once daily by oral gavage in a volume of 0.1 mL per dose. Dipentum, an FDA-approved anti-colitis drug whose active ingredient, olsalazine, is converted to 5-aminosalicylic acid in vivo, was used as a positive control. The mice were given normal drinking water or 2% DSS and treated orally with an SK inhibitor or Dipentum at a dose of 50 mk/kg daily. The body weight of each animal was measured each day, and the Disease Activity Index (DAI) was scored for each animal on Days 4-6. On Day 6, the animals were sacrificed by cervical dislocation and the entire colon was removed and measured to the nearest 0.1 cm. Portions of the colons were then fixed, sectioned and their histologies were assessed on a blinded basis to determine their Histology Score. Other portions of the colons were used for biochemical analyses of inflammation markers.

For data set [2], the system named is mice, multiple cycles of DSS-induced inflammation. Nature of the data set: Chronic DSS-colitis model (35-day). It is filed as in vivo, mouse. The procedure:
FIG. 13. Effects of Compound 62 on the DAI in the chronic DSS-colitis model. Mice received 2 cycles (7 days per cycle) of DSS (1.5% cycle 1 and 1% cycle 2), 2 cycles of normal drinking water and were randomized by DAI on Day 28 into groups of 8 mice. The mice were then treated as follows: No DSS (▪)—normal drinking water and orally dosed with PEG400 every day for 7 days (water control); DSS alone (▴)—drinking water containing 1.5% DSS and orally dosed with PEG daily for 7 days; DSS+Compound 62 (▾)—drinking water containing 1.5% DSS and orally dosed with Compound 62 (50 mg/kg) every day for 7 days; DSS+Dipentum (♦)—drinking water containing 1.5% DSS and orally dosed with Dipentum (50 mg/kg). *p<0.001 versus No DSS group.
A 35-day model of IBD was used to evaluate the effectiveness of the SK inhibitors in mice that experience multiple cycles of DSS-induced inflammation. This chronic model is similar to the acute model, except that the DSS concentration in the drinking water is lower and animals receive periodic exposure to DSS (DSS on days 1-7, water on Days 8-13, DSS on day 14-21, water on Days 22-27 and then DSS until the completion of the study on Day 35). In these experiments, treatment of the mice with an SK inhibitor or Dipentum began on Day 28 and continued daily until the completion of the study. The DAI index was monitored every other day until Day 28 and then daily until Day 35. Animals were sacrificed on Day 35, and changes in the colon length and cytokine profiles were measured.

A further data set deals with recombinant human SK. As to the kind of experiment: Inhibition of recombinant human SK, LC/MS/MS assay. The data set is classed as biochemical. The settings on record: 6 μg/ml compound. The essentials: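 Enzyme incubated with unlabeled sphingosine and ATP (1 mM, as in the radiometric format) for 30 min, then stopped and extracted with acetonitrile. S1P quantified by C8 reverse-phase HPLC–MS/MS against C17 sphingosine and C17 S1P internal standards using calibration curves.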

Data set [3] concerns MCF-10A non-transformed human breast epithelial cells. Nature of the data set: Cytotoxicity, SRB binding assay. The conditions noted are these: inhibition of cell proliferation, 48 h, read-out: MCF-10A IC50. The data set is classed as cell-based. The procedure, abridged:
(§1)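 Cells exposed to varying compound doses for 48 h, then survival measured by sulforhodamine B staining. IC50 is the concentration giving 50% proliferation inhibition, in μM, as mean±sd of replicate trials.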

In data set [4] the test system is MCF-7 human breast adenocarcinoma cells. As to the kind of experiment: Cytotoxicity, SRB binding assay. The data set is classed as cell-based. The settings on record: MCF7, inhibition of cell proliferation, 48 h, read-out: MCF-7 IC50. The procedure, abridged:
as §1
For orientation: In SRB staining, fixed cells bind dye roughly in proportion to their protein.

In data set [5] the test system is mouse JC mammary adenocarcimona cell line growing subcutaneously in Balb/c mice. The conditions noted are these: JC tumor model, intraperitoneal (ip) or oral (po) administration. The method, then:
The antitumor activity of the representative SK inhibitors were evaluated using a syngeneic tumor model that uses the mouse JC mammary adenocarcimona cell line growing subcutaneously in immunocompetent Balb/c mice (Lee et al., 2003, Oncol Res 14: 49).
In FIG. 1, Balb/c mice, 6-8 weeks old, were injected subcutaneously with 10^6 JC cells suspended in phosphate-buffered saline. The SK inhibitors Compounds 62 and 57 were dissolved in PEG400 and administered to mice every-other day at a dose of 100 mg/kg. Body weights and tumor volumes were monitored daily. In FIG. 1, tumor growth is expressed as the tumor volume relative to day 1 for each animal.

As for `O=C(O)c1cc(/N=N/c2ccc(O)c(C(=O)O)c2)ccc1O` [Dipentum, olsalazine, reference compound], in data set [1], the “elevations of colon pro-inflammatory proteins IFN-γ, IL-1β, IL-6 and TNFα” value is on record as “attenuated”; the “increase in colon myeloperoxidase (MPO) activity” value is “markedly attenuated”. Also, in data set [1] (Day 6), the “Histology Score vs DSS-alone animals” value is listed as “consistently lower” and the colon length result is “intermediate length”. In addition, in data set [1] (Days 4-6), the “Disease Activity Index (intensity of IBD manifestations)” value is recorded as “reduced”. The compound further showed a colon length in data set [2] (50 mg/kg oral daily Day 28-35, DSS alone 4.9±0.2, water 7.8±0.3) of 6.1±0.2 cm. In addition, the “increase in DAI” value in data set [2] (50 mg/kg oral daily from Day 28 to Day 35, third DSS exposure) is listed as “significantly suppressed”. In addition, in data set [2] (at sacrifice, Day 35), the “serum level of IL-6” value is recorded as “reduced”. Further, the “colon levels of pro-inflammatory cytokines TNFα, IL-1β, IFN-γ and IL-6” value in data set [2] (treated during the final DSS cycle) is listed as “equivalent to the DSS-alone group”.
For `CN1CCC(NC(=O)C23CC4CC(C2)CC(c2ccc(Cl)cc2)(C4)C3)CC1` [Compound 51, 3-(4-Chloro-phenyl)-adamantane-1-carboxylic acid (1-methyl-piperidin-4-yl)-amide], the “Recombinant SK (% inhibition)” value in the data set on recombinant human SK is on record as 84%. Also, the pIC50 was 4.60 in data set [3] and 5.10 in data set [4]. Further, the In vivo activity entry in data set [5] is “active - ip and po”.
Compound `Oc1ccc(NCC23CC4CC(C2)CC(c2ccc(Cl)cc2)(C4)C3)cc1` [Compound 76, 4-{[3-(4-Chloro-phenyl)-adamantan-1-ylmethyl]-amino}-phenol] yielded a melting point of 138 to 140 °C. For the same compound, the “Recombinant SK (% inhibition)” value with recombinant human SK turned out to be 42%. In addition, the pIC50 in data set [4] was 5.30.
Regarding `CC(NC1CCN(C)CC1)C12CC3CC(CC(c4ccc(Cl)cc4)(C3)C1)C2` (stereo not drawn) [Compound 107, {1-[3-(4-Chloro-phenyl)-adamantan-1-yl]-ethyl}-(1-methyl-piperidin-4-yl)-amine], the pIC50 in data set [3] and in data set [4] was 6.00 each time. Further, the In vivo activity entry in data set [5] was “active - ip”.
For `O=C(NCCc1ccc(O)c(O)c1)C12CC3CC(C1)CC(c1ccc(Cl)cc1)(C3)C2` [Compound 44, 3-(4-Chloro-phenyl)-adamantane-1-carboxylic acid [2-(3,4-dihydroxy-phenyl)-ethyl]-amide], the values for the pIC50 in data set [3] and in data set [4] were 5.05 and 5.22, respectively. Besides, the In vivo activity entry in data set [5] is listed as “active - ip”.
In the case of `O=C(/C=C/c1ccc2ccccc2c1)C12CC3CC(C1)CC(c1ccc(Cl)cc1)(C3)C2` [Compound 133, 1-[3-(4-Chloro-phenyl)-adamantan-1-yl]-3-naphthalen-2-yl-propenone], the melting point was 82 to 84 °C. In addition, in the data set on recombinant human SK, the “Recombinant SK (% inhibition)” value turned out to be 36%. Further, in data set [4], the pIC50 was 4.89.
Turning to `Cc1cc2cc(NC(=O)C34CC5CC(C3)CC(c3ccc(Cl)cc3)(C5)C4)ccc2[nH]1` [Compound 66, 3-(4-Chloro-phenyl)-adamantane-1-carboxylic acid (2-methyl-1H-indol-5-yl)-amide], in the data set on recombinant human SK, the “Recombinant SK (% inhibition)” value is 92%. For the same compound, the figures for the pIC50 in data set [3] and in data set [4] were 4.28 and 4.72, respectively.
With `CC(NC(=O)C12CC3CC(C1)CC(c1ccc(Cl)cc1)(C3)C2)c1ccc(Br)cc1` (stereo not drawn) [Compound 29, 3-(4-Chloro-phenyl)-adamantane-1-carboxylic acid [1-(4-bromo-phenyl)-ethyl]-amide], the “Recombinant SK (% inhibition)” value in the data set with recombinant human SK is 55%. For the same compound, the results for the pIC50 in data set [3] and in data set [4] were 3.97 and 5.15, respectively.
For `O=C(NCCc1ccc(O)cc1)C12CC3CC(C1)CC(c1ccc(Cl)cc1)(C3)C2` [Compound 40, 3-(4-Chloro-phenyl)-adamantane-1-carboxylic acid [2-(4-hydroxy-phenyl)-ethyl]-amide] the same measures were 100%, 4.43 and 5.22.
For `CC(C)(C)c1ccc(CNC(=O)C23CC4CC(C2)CC(c2ccc(Cl)cc2)(C4)C3)cc1` [Compound 13, 3-(4-Chloro-phenyl)-adamantane-1-carboxylic acid 4-tert-butyl-benzylamide] the same measures were 78%, 3.94 and 4.29.
As for `N#CCc1ccc(NC(=O)C23CC4CC(C2)CC(c2ccc(Cl)cc2)(C4)C3)cc1` [Compound 11, 3-(4-Chloro-phenyl)-adamantane-1-carboxylic acid (4-cyanomethyl-phenyl)-amide], in the data set on recombinant human SK, the “Recombinant SK (% inhibition)” value came to 17%. Moreover, the pIC50 in data set [3] and in data set [4] was 4.06 throughout.
The compound `CCn1c2ccccc2c2cc(/C=C/C(=O)C34CC5CC(C3)CC(c3ccc(Cl)cc3)(C5)C4)ccc21` [Compound 136, 1-[3-(4-Chloro-phenyl)-adamantan-1-yl]-3-(9-ethyl-9H-carbazol-3-yl)-propenone] came in with a melting point of 138 to 140 °C. In addition, the pIC50 in data set [4] is 5.10.
For `O=C(Nc1cccc(CO)c1)C12CC3CC(C1)CC(c1ccc(Cl)cc1)(C3)C2` [Compound 9, 3-(4-Chloro-phenyl)-adamantane-1-carboxylic acid (3-hydroxymethyl-phenyl)-amide], in the data set on recombinant human SK, the “Recombinant SK (% inhibition)” value turned out to be 84%. The pIC50 in data set [3] was 4.77; in data set [4], 5.05.
In the same order, the values of `O=C(NCCc1ccc(F)cc1)C12CC3CC(C1)CC(c1ccc(Cl)cc1)(C3)C2` [Compound 38, 3-(4-Chloro-phenyl)-adamantane-1-carboxylic acid [2-(4-fluoro-phenyl)-ethyl]-amide] are 40%, 4.40 and 5.05.
In the same order, the values of `O=C(NCCN1CCOCC1)C12CC3CC(C1)CC(c1ccc(Cl)cc1)(C3)C2` [Compound 58, 3-(4-Chloro-phenyl)-adamantane-1-carboxylic acid (2-morpholin-4-yl-ethyl)-amide] are 67%, 4.44 and 4.70.
With `O=C(NCCc1ccccc1)C12CC3CC(C1)CC(c1ccc(Cl)cc1)(C3)C2` [Compound 37, 3-(4-Chloro-phenyl)-adamantane-1-carboxylic acid phenethyl-amide], in the data set with recombinant human SK, the “Recombinant SK (% inhibition)” value came to 24%. For the same compound, the pIC50 in data set [3] is 3.90; in data set [4], 5.30.
For `O=C(NCCc1ccc(Br)cc1)C12CC3CC(C1)CC(c1ccc(Cl)cc1)(C3)C2` [Compound 39, 3-(4-Chloro-phenyl)-adamantane-1-carboxylic acid [2-(4-bromo-phenyl)-ethyl]-amide] the same measures were 19%, 3.97 and 4.82.
As for `O=C(/C=C/c1ccc(O)cc1)C12CC3CC(C1)CC(c1ccc(Cl)cc1)(C3)C2` [Compound 132, 1-[3-(4-Chloro-phenyl)-adamantan-1-yl]-3-(4-hydroxy-phenyl)-propenone], the melting point is 87 to 89 °C. Also, the “Recombinant SK (% inhibition)” value with recombinant human SK stood at 8%. For the same compound, in data set [4], the pIC50 is 4.77.
